Among the data in PubChem BioAssay (NCI) are TGI values, retold here.

Test systems include A498 renal; A549 NSCLC; CAKI-1 renal; COLO 205 colon; EKVX NSCLC; HCC-2998 colon; K-562 leukemia; NCI/ADR-RES ovarian; OVCAR-4 ovarian; OVCAR-8 ovarian; PC-3 prostate; SF-268 CNS; SF-295 CNS; SF-539 CNS; SK-MEL-5 melanoma; SK-OV-3 ovarian; SNB-75 CNS; UACC-257 melanoma; NCI-H460 lung; HL-60(TB) leukemia.
What all share (assay): DTP human tumour cell line panel, 48 h

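Results reflect a 48-hour exposure of cells in 96-well plates to compound at five concentrations. TGI: total growth inhibition.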 Where only a bound is given, the exact number is not on record here.

Regarding `COc1ccc2c(c1)CCN1CCCc3ccc(OC)cc3C21` (stereo not given), the TGI in the assay on A498 renal, in the assay on A549 NSCLC, with CAKI-1 renal, with COLO 205 colon, with EKVX NSCLC and in the assay on HCC-2998 colon was over 100 µM in each case. The TGI in the assay on K-562 leukemia, in the assay with NCI/ADR-RES ovarian, in the assay with OVCAR-4 ovarian, with OVCAR-8 ovarian, in the assay with PC-3 prostate and in the assay on SF-268 CNS was over 100 µM in each case. For the same compound, the concentration for total growth inhibition (TGI) is over 100 µM in the assay on SF-295 CNS; over 100 µM in the assay with SF-539 CNS; over 100 µM in the assay with SK-MEL-5 melanoma; over 100 µM in the assay on SK-OV-3 ovarian; 83.2 µM in the assay on SNB-75 CNS; over 100 µM in the assay on UACC-257 melanoma.

For `COCCN(CCOC)C(=O)COc1c2cc(C(C)(C)C)cc1Cc1cc(C(C)(C)C)cc(c1OCC(=O)N(CCOC)CCOC)Cc1cc(C(C)(C)C)cc(c1OCC(=O)N(CCOC)CCOC)Cc1cc(C(C)(C)C)cc(c1OCC(=O)N(CCOC)CCOC)Cc1cc(C(C)(C)C)cc(c1OCC(=O)N(CCOC)CCOC)C2`, the total growth inhibition concentration (TGI) in the assay on A498 renal turned out to be 9.53 µM; in the assay with A549 NSCLC it was 11.3 µM; with COLO 205 colon, 1.96 µM; with EKVX NSCLC, 2.8 µM; with HCC-2998 colon, 18.3 µM; in the assay on NCI-H460 lung, 5.86 µM. Further, the concentration for total growth inhibition (TGI) in the assay on NCI/ADR-RES ovarian came to 33 µM; in the assay on OVCAR-4 ovarian, 17.5 µM; in the assay on OVCAR-8 ovarian it was 22.8 µM; in the assay with PC-3 prostate, 3.48 µM; with SF-268 CNS, 19.1 µM; with SF-295 CNS, 6.43 µM. In addition, the TGI with SF-539 CNS was determined as 5.9 µM; with SK-MEL-5 melanoma, 2.78 µM; in the assay with SK-OV-3 ovarian, 14.6 µM; in the assay on SNB-75 CNS, 0.576 µM; with UACC-257 melanoma it was 6.58 µM.

As for `C[C@@H](CO)C1=CC(C#C[Si](C)(C)C)N(C(=O)Oc2ccccc2)c2ccccc21` (stereo not given in full), the TGI was 61.4 µM in the assay on A549 NSCLC; 56.8 µM with CAKI-1 renal; over 100 µM in the assay with COLO 205 colon; 53.7 µM in the assay on EKVX NSCLC; 29.9 µM with HCC-2998 colon; 57.2 µM in the assay on HL-60(TB) leukemia. The TGI stood at 95.5 µM in the assay with K-562 leukemia; 37.4 µM with NCI-H460 lung; 31.3 µM in the assay with NCI/ADR-RES ovarian; 27 µM in the assay with OVCAR-4 ovarian; 35 µM in the assay with OVCAR-8 ovarian; 64.1 µM in the assay on PC-3 prostate. For the same compound, the concentration for total growth inhibition (TGI) with SF-268 CNS was 39 µM; in the assay with SF-295 CNS, 28.1 µM; in the assay on SF-539 CNS, 41.6 µM; with SK-MEL-5 melanoma, 30.5 µM; with SK-OV-3 ovarian, 56.3 µM; in the assay on SNB-75 CNS, 36.1 µM. In the assay on UACC-257 melanoma, the TGI was 38.3 µM.

Regarding `Cc1sc(Nc2ccccc2[N+](=O)[O-])c(C#N)c1C`, the concentration for total growth inhibition (TGI) with A498 renal, in the assay on A549 NSCLC, in the assay on CAKI-1 renal, with COLO 205 colon, with EKVX NSCLC and in the assay on HCC-2998 colon was over 100 µM throughout. Further, the TGI in the assay on K-562 leukemia was over 100 µM; in the assay with NCI-H460 lung it was over 100 µM; in the assay with NCI/ADR-RES ovarian, 96.6 µM; with OVCAR-4 ovarian it was over 100 µM; with OVCAR-8 ovarian, over 100 µM; in the assay with PC-3 prostate, over 100 µM. For the same compound, the concentration for total growth inhibition (TGI) in the assay on SF-268 CNS is 61.8 µM; in the assay on SF-295 CNS, over 100 µM; with SF-539 CNS, 68.3 µM; in the assay on SK-OV-3 ovarian it was over 100 µM; in the assay with SNB-75 CNS, 39.9 µM; in the assay with UACC-257 melanoma, over 100 µM.

For the compound `CC1=CC(=O)[C@@H](O)[C@]2(C)[C@H]3[C@@]4(O)OC[C@@]35[C@@H](C[C@@H]12)OC(=O)C(OC(=O)CC1=CCCC1)[C@H]5[C@@H](C)[C@H]4O` (stereo not given in full), the TGI in the assay with A549 NSCLC stood at 8.99 µM; in the assay with CAKI-1 renal it was 1.63 µM; with COLO 205 colon, 0.724 µM; in the assay with EKVX NSCLC, 1.45 µM; with HCC-2998 colon, 0.232 µM; in the assay with HL-60(TB) leukemia, 0.237 µM. Also, the total growth inhibition concentration (TGI) with K-562 leukemia is over 100 µM; in the assay on NCI-H460 lung, 0.133 µM; in the assay with NCI/ADR-RES ovarian, 1.21 µM; with OVCAR-4 ovarian it was 0.284 µM; in the assay with OVCAR-8 ovarian, 0.139 µM; in the assay on PC-3 prostate it was 0.733 µM. The concentration for total growth inhibition (TGI) came to 0.132 µM in the assay on SF-268 CNS; 0.448 µM with SF-295 CNS; 0.0676 µM in the assay with SF-539 CNS; 0.0713 µM in the assay with SK-MEL-5 melanoma; 5.04 µM in the assay on SK-OV-3 ovarian; 0.155 µM in the assay on SNB-75 CNS. Also, the concentration for total growth inhibition (TGI) in the assay with UACC-257 melanoma is 0.217 µM.

Turning to `Nc1ncnc2c1ncn2C1C=CC(COS(N)(=O)=O)C1` (stereo not given), the TGI was over 100 µM in the assay with A549 NSCLC; 57.6 µM with CAKI-1 renal; over 100 µM in the assay on COLO 205 colon; over 100 µM in the assay on EKVX NSCLC; over 100 µM in the assay on HCC-2998 colon; 30.1 µM in the assay with HL-60(TB) leukemia. Moreover, the total growth inhibition concentration (TGI) in the assay with K-562 leukemia, in the assay with NCI-H460 lung, in the assay with NCI/ADR-RES ovarian, in the assay on OVCAR-4 ovarian, in the assay with OVCAR-8 ovarian and in the assay on PC-3 prostate was over 100 µM each time. Further, the TGI in the assay with SF-268 CNS is over 100 µM; with SF-295 CNS it was over 100 µM; in the assay on SF-539 CNS it was 7.12 µM; with SK-MEL-5 melanoma it was over 100 µM; in the assay with SK-OV-3 ovarian, over 100 µM; in the assay with SNB-75 CNS it was over 100 µM. For the same compound, the TGI with UACC-257 melanoma is over 100 µM.
